Where two headings read alike, the source gives them in different places.
Key:
Amaranthus retroflexus = test: Test of herbicidal activities (greenhouse pot method); type: in vivo; settings: for inhibition at 300 g/ha: Amaranthus retroflexus, 360 h, read-out: Herbicidal activity Amaranthus retroflexus (inhibition level)
Procedure, shortened: (§1)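 Weeds were sown in soil-filled pots at 15–30 °C and treated once by spray tower at 300 g ai./h, either before emergence or post-emergence at the 2-leaf stage, in three replicates with an untreated control. Symptoms were scored 15 days later into five classes from A (≥90%) to E (<50%).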

Brassica juncea = test: as above; type: in vivo; settings: for inhibition at 300 g/ha: Brassica juncea, 360 h, read-out: Herbicidal activity Brassica juncea (inhibition level)
Procedure, shortened: as §1

Chenopodium album = test: as above; type: in vivo; settings: for inhibition at 300 g/ha: Chenopodium album, 360 h, read-out: Herbicidal activity Chenopodium album (inhibition level)
Procedure, shortened: as §1

Digiatria sanguinalis = test: as above; type: in vivo; settings: for inhibition at 300 g/ha: 360 h, read-out: Herbicidal activity Digiatria sanguinalis (inhibition level)
Procedure, shortened: as §1

Echinochloa crusgalli = test: as above; type: in vivo; settings: for inhibition at 300 g/ha: Echinochloa crus-galli, 360 h, read-out: Herbicidal activity Echinochloa crusgalli (inhibition level)
Procedure, shortened: as §1

Setaria viridis = test: as above; type: in vivo; settings: for inhibition at 300 g/ha: Setaria viridis, 360 h, read-out: Herbicidal activity Setaria viridis (inhibition level)
Procedure, shortened: as §1

[1] = single dose 300 g ai./h, treated before/after germination, 15 days later, greenhouse pot

Row | Structure (SMILES) | Herbicidal activity Amaranthus retroflexus (inhibition level) (Amaranthus retroflexus; [1]) | Herbicidal activity Brassica juncea (inhibition level) (Brassica juncea; [1]) | Herbicidal activity Chenopodium album (inhibition level) (Chenopodium album; [1]) | Herbicidal activity Digiatria sanguinalis (inhibition level) (Digiatria sanguinalis; [1]) | Herbicidal activity Echinochloa crusgalli (inhibition level) (Echinochloa crusgalli; [1]) | Herbicidal activity Setaria viridis (inhibition level) (Setaria viridis; [1]) | further results
1 | Cc1nn(-c2cc3nc([S+]([O-])Cc4ccccc4)sc3cc2F)c(=O)n1C (stereo not shown) [Compound 101, 1-(2-(benzylsulfinyl)-6-fluorobenzo[d]thiazol-5-yl)-3,4-dimethyl-1H-1,2,4-triazol-5(4H)-one] | – | – | – | – | – | – | inhibition at 300 g/ha (Amaranthus retroflexus; [1]): 60 to 80%; inhibition at 300 g/ha (Brassica juncea; [1]): 50 to 60%; inhibition at 300 g/ha (Chenopodium album; [1]): 80 to 90%; inhibition at 300 g/ha (Digiatria sanguinalis; [1]): 60 to 80%; inhibition at 300 g/ha (Echinochloa crusgalli; [1]): 80 to 90%; inhibition at 300 g/ha (Setaria viridis; [1]): 60 to 80%; melting point: 162 to 164 °C
2 | Cc1nn(-c2cc3nc(SCc4cccc(F)c4)sc3cc2F)c(=O)n1C(F)F [Compound 19] | A (90 ≦ A ≦ 100%) | B (80 ≦ B < 90%) | A (90 ≦ A ≦ 100%) | B (80 ≦ B < 90%) | E (E < 50%) | C (60 ≦ C < 80%) | –
3 | Cc1nn(-c2cc3nc(SCc4ccc(Br)cc4)sc3cc2Br)c(=O)n1C(F)F [Compound 26] | B (80 ≦ B < 90%) | B (80 ≦ B < 90%) | A (90 ≦ A ≦ 100%) | C (60 ≦ C < 80%) | D (50 ≦ D < 60%) | C (60 ≦ C < 80%) | –
4 | Cc1nn(-c2cc3nc([S+](C)[O-])sc3cc2F)c(=O)n1C(F)F (stereo not shown) [Compound 119] | B (80 ≦ B < 90%) | E (E < 50%) | B (80 ≦ B < 90%) | C (60 ≦ C < 80%) | E (E < 50%) | C (60 ≦ C < 80%) | –
5 | CCOC(=O)CSc1nc2cc(-n3nc(C)n(C(F)F)c3=O)c(F)cc2s1 [Compound 93, Ethyl 1-{5-[4-difluoromethyl-3-methyl-5-oxo-4,5-dihydro-1,2,4-triazol-1-yl]-6-fluorobenzo[d]thiazol-2-ylthio}acetate] | – | – | – | – | – | – | inhibition at 300 g/ha (Amaranthus retroflexus): 90 to 100%; inhibition at 300 g/ha (Brassica juncea): 90 to 100%; inhibition at 300 g/ha (Chenopodium album): 90 to 100%; inhibition at 300 g/ha (Digiatria sanguinalis): 90 to 100%; inhibition at 300 g/ha (Echinochloa crusgalli): 90 to 100%; inhibition at 300 g/ha (Setaria viridis): 80 to 90%
6 | CCCS(=O)(=O)c1nc2cc(-n3nc(C)n(C(F)F)c3=O)c(Cl)cc2s1 [Compound 72] | A (90 ≦ A ≦ 100%) | B (80 ≦ B < 90%) | B (80 ≦ B < 90%) | B (80 ≦ B < 90%) | A (90 ≦ A ≦ 100%) | C (60 ≦ C < 80%) | –
7 | CCOC(=O)CSc1nc2cc(-n3nc(C(F)(F)F)n(C(F)F)c3=O)c(Br)cc2s1 [Compound 127] | B (80 ≦ B < 90%) | B (80 ≦ B < 90%) | B (80 ≦ B < 90%) | B (80 ≦ B < 90%) | C (60 ≦ C < 80%) | D (50 ≦ D < 60%) | –
8 | Cc1nn(-c2cc3nc(S(=O)(=O)Cc4c(F)cccc4F)sc3cc2Cl)c(=O)n1C(F)F [Compound 38] | C (60 ≦ C < 80%) | D (50 ≦ D < 60%) | C (60 ≦ C < 80%) | D (50 ≦ D < 60%) | C (60 ≦ C < 80%) | B (80 ≦ B < 90%) | –
9 | CCOC(=O)C(C)[S+]([O-])c1nc2cc(-n3nc(C)n(C(F)F)c3=O)c(Br)cc2s1 (stereo not shown) [Compound 116] | B (80 ≦ B < 90%) | A (90 ≦ A ≦ 100%) | B (80 ≦ B < 90%) | C (60 ≦ C < 80%) | D (50 ≦ D < 60%) | B (80 ≦ B < 90%) | –
10 | CCOC(=O)C(C)S(=O)(=O)c1nc2cc(-n3nc(C)n(C(F)F)c3=O)c(Cl)cc2s1 (stereo not shown) [Compound 67] | C (60 ≦ C < 80%) | B (80 ≦ B < 90%) | B (80 ≦ B < 90%) | A (90 ≦ A ≦ 100%) | C (60 ≦ C < 80%) | B (80 ≦ B < 90%) | –
11 | CCOCCSc1nc2cc(-n3nc(C)n(C(F)F)c3=O)c(Cl)cc2s1 [Compound 78] | A (90 ≦ A ≦ 100%) | D (50 ≦ D < 60%) | B (80 ≦ B < 90%) | A (90 ≦ A ≦ 100%) | C (60 ≦ C < 80%) | A (90 ≦ A ≦ 100%) | –
12 | Cc1nn(-c2cc3nc(SCc4ccccc4)sc3cc2F)c(=O)n1C [Compound 30] | A (90 ≦ A ≦ 100%) | D (50 ≦ D < 60%) | C (60 ≦ C < 80%) | B (80 ≦ B < 90%) | E (E < 50%) | B (80 ≦ B < 90%) | –
13 | CCOC(=O)C(C)Sc1nc2cc(-n3nc(C(F)(F)F)n(C(F)F)c3=O)c(Cl)cc2s1 (stereo not shown) [Compound 124] | B (80 ≦ B < 90%) | B (80 ≦ B < 90%) | B (80 ≦ B < 90%) | E (E < 50%) | D (50 ≦ D < 60%) | A (90 ≦ A ≦ 100%) | –
14 | CCOC(=O)C(C)[S+]([O-])c1nc2cc(-n3nc(C)n(C(F)F)c3=O)c(F)cc2s1 (stereo not shown) [Compound 118] | A (90 ≦ A ≦ 100%) | D (50 ≦ D < 60%) | B (80 ≦ B < 90%) | C (60 ≦ C < 80%) | D (50 ≦ D < 60%) | C (60 ≦ C < 80%) | –
15 | CCOC(=O)C(C)Sc1nc2cc(-n3nc(C)n(C(F)F)c3=O)c(Cl)cc2s1 (stereo not shown) [Compound 95] | A (90 ≦ A ≦ 100%) | D (50 ≦ D < 60%) | B (80 ≦ B < 90%) | A (90 ≦ A ≦ 100%) | A (90 ≦ A ≦ 100%) | A (90 ≦ A ≦ 100%) | –

— patent US7666890B2, “Synthesis and herbicidal activity of 1- (2-substituted benzo[d]thiazol-5-yl)-1H-1,2,4-triazol-5(4H)-one derivatives” (Huazhong Normal University, priority 2007, dated 2010)
